Source: ChEMBL document CHEMBL1130439, “Constrained analogues of 2-nor cyclic nucleoside monophosphates” (1997)

Experiments:
Vero [1] = assay: Compound was tested against HSV-1 (KOS strain) in plaque reduction assay in Vero cells; no inhibition up to 100 ug/ml.; type: functional, cell-based; conditions: Chlorocebus sabaeus
Vero [2] = assay: Compound was tested against HSV-2 (186 strain) in plaque reduction assay in Vero cells; no inhibition up to 100 ug/ml.; type: functional, cell-based; conditions: Chlorocebus sabaeus
MT4 [3] = assay: Compound was tested against HIV-l (RF strain) in plaque reduction assay in MT-4 cells; no inhibition up to 100 ug/ml.; type: functional, cell-based; conditions: Homo sapiens
F2002 cell line [4] = assay: The compound was tested for inhibitory activity against human cytomegalovirus (HCMV) in flow 2002 cells; type: functional; conditions: read-out: CD50 (the source's name)
F2002 cell line [5] = assay: The compound was tested for inhibitory activity against human cytomegalovirus (HCMV) (WFl strain) in plaque reduction assay in flow 2002 cells; type: functional
MT4 [6] = assay: Compound was tested against HIV-l (RF strain) in plaque reduction assay in MT-4 cells; no inhibition up to 100 ug/ml..; type: functional, cell-based; conditions: Homo sapiens
F2002 cell line [7] = assay: The compound was tested for inhibitory activity against human cytomegalovirus (HCMV) in flow 2002 cells; no inhibition up to 100 ug/ml.; type: functional, cell-based

SMILES	Activity (Vero [1])	Activity (Vero [2])	Activity (MT4 [3])	CC50 (F2002 cell line [4]) [µg/mL]	PD50 (F2002 cell line [5]) [µg/mL]	Activity (MT4 [6])	Activity (F2002 cell line [7])
Nc1nc(=O)n(C2CSC3(COP(=O)(O)OC3)O2)cc1F (stereo not given)	No inhibition	No inhibition	No inhibition	> 100	>100		
N.Nc1ccn(C2CSC3(COP(=O)(O)OC3)O2)c(=O)n1 (stereo not given)	No inhibition	No inhibition	No inhibition	> 100	11		
O=c1ccn(C2CSC3(COP(=O)(O)OC3)O2)c(=O)[nH]1 (stereo not given)	No inhibition	No inhibition		> 100	2.5	No inhibition	
Cc1cn(C2CSC3(COP(=O)(O)OC3)O2)c(=O)[nH]c1=O (stereo not given)	No inhibition	No inhibition	No inhibition	> 100	>100		
CC(=O)Nc1nc(=O)n(C2CSC(CO)(CO)O2)cc1Br (stereo not given)							No inhibition
O=c1ccn(C2CSC(CO)(CO)O2)c(=O)[nH]1 (stereo not given)							No inhibition
N.Nc1nc2c(ncn2C2CSC3(COP(=O)(O)OC3)O2)c(=O)[nH]1 (stereo not given)	No inhibition	No inhibition	No inhibition	> 100	>100		
Nc1nc2c(ncn2COC(CO)CO)c(=O)[nH]1 [GANCICLOVIR]				> 100	0.1		
Nc1nc(=O)n(C2CSC3(COP(=O)(O)OC3)O2)cc1Br (stereo not given)	No inhibition	No inhibition	No inhibition	> 100	2.5		
CC(=O)Nc1ccn(C2CSC(CO)(CO)O2)c(=O)n1 (stereo not given)							No inhibition
